Assay results from patent publication US11426472B2, “Fibroblast activation protein (FAP) targeted imaging and therapy in fibrosis” (Purdue Research Foundation, priority 2018, dated 2022).

Assays:
mouse FAP = target: T1, mouse FAP (Mus musculus, UniProt P97321); test: Binding of FAPL_FITC to TGFβ-induced NIH-3T3 cells; assay type: cell-based
T1 construct: NIH-3T3 cells were induced with TGFβ to express FAP; endogenous in cells; host or cells: NIH-3T3 mouse fibroblasts induced with TGFβ
T1 sequence (P97321 1-761): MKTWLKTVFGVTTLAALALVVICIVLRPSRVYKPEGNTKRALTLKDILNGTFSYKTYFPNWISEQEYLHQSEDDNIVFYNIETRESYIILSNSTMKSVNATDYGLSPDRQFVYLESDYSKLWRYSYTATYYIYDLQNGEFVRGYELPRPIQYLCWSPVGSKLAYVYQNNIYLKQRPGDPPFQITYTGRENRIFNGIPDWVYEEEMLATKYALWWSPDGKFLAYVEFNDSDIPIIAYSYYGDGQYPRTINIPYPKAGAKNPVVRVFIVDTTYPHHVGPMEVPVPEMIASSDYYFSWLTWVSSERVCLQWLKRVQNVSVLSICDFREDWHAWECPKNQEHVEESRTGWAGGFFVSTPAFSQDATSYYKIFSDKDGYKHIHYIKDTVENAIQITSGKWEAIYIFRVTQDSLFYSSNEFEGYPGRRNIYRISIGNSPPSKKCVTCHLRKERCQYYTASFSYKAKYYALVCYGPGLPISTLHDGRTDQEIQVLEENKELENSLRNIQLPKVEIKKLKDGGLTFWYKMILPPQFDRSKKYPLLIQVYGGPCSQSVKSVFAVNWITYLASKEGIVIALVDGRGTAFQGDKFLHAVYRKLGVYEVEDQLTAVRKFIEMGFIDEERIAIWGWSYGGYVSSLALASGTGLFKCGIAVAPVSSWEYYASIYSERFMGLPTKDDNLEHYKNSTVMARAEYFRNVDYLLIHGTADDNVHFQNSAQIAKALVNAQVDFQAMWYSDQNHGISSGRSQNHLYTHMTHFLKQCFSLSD
From the text: FAPL-FITC targets mouse FAP in mouse fibroblast cells. Fluorescence binding affinity study of FAPL_FITC in HLF-hFAP cells. (C) Binding of FAPL_FITC to TGFb induced mouse NIH-3T3 cell line.
In this Example, we have shown that FAPL_FITC can recognize mouse FAP. Briefly, NIH-3T3 cells were induced with TGFβ to express FAP (mimicking the pathogenesis of fibrosis in mice). FAPL_FITC can recognize almost 98% of the cell population that binds to a specific monoclonal antibody against mouse FAP.

human FAP = target: T2, human FAP (Homo sapiens, UniProt Q12884); test: Live cell imaging of FAP-FITC binding and internalization in HLF1-hFAP cells; assay type: cell-based; conditions: 10 nM
T2 construct: expressed in transfected cells; host or cells: HLF1 human lung fibroblast cell line transfected with FAP (HLF1-hFAP)
T2 sequence (Q12884 1-760): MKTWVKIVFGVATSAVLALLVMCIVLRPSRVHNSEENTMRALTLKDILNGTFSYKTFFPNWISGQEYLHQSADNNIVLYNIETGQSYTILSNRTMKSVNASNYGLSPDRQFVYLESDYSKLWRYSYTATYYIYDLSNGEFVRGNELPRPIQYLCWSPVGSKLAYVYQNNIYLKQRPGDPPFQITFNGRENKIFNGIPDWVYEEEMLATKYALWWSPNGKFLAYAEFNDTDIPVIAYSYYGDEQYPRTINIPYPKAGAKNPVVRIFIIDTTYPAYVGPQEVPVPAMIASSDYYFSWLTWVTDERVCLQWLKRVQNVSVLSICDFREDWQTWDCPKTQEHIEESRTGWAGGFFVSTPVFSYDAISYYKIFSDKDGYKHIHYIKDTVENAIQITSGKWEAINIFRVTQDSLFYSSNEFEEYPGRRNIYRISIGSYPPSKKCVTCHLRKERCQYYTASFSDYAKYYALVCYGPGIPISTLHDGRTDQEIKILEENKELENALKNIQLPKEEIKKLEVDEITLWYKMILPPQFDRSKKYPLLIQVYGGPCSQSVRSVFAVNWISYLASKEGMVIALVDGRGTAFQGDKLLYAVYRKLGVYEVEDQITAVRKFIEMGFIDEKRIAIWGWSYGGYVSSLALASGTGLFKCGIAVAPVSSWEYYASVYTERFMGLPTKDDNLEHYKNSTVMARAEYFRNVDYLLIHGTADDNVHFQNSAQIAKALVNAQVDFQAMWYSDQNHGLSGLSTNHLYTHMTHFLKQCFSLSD
Protocol: FAPL-FITC targets human FAP in HLF1 cells. A) Live cell imaging of FAPL-FITC internalization. confocal microscopy images of HLF1-hFAP cells incubated with FAPL-FITC (10 nM), FAP staining is shown in green. Spatial localization of FAPL-FITC in HLF1-hFAP cell line at 0 min (a), and at 30 min (d). Colocalization of FAP and endosomes: HLF1-hFAP cells incubated with FAPL-FITC followed by staining for endosomes (Rab7a-RFP; red) and nucleus (DRAQ5; blue). The merge of the 3 images is shown on the right (c, and f). Yellow indicated colocalization of FAP with endosomal markers.
HLF1-hFAP cells were seeded in the glass-bottom dish and incubated with adequate amount of endosomes tracker (Rab7a-RFP, ThermoFisher) for overnight. Then cells were incubated with FAP-FITC (10 nM) for 1 hour at 4° C. Followed by staining with […] DRAQ5 nucleus dye (ThermoFisher) and 3 times of PBS washes, spatial localization of FAP-FITC was monitor at given time under ambient temperature by confocal microscope (FV 1000, Olympus). Confocal images were further processed by FV10-ASW, Olympus software.

HLF-1 fibroblasts [1] = test: Secreted collagen in HLF1 cells (Sirius Red staining); assay type: cell-based, human
Protocol: (§1) PI3KI1 inhibits Akt phosphorylation, proliferation, collagen secretion and collagen gel contraction in HLF-1 fibroblasts. (A) PI3KI1 structure. (B) Confluent HLF-1 fibroblasts were stimulated with TGFβ (1 ng/mL) with indicated PI3KI1 or OMIPALISIB and lysates collected for Western blotting. […] Collagen 1 and αSMA expression was suppressed by 100 nM PI3KI1, but pSMAD2 was not affected by PI3K inhibitors. (C) MTT assay and Caspase 3 and 7 activity (Supplementary data) show PI3KI1 inhibited HLF-1 proliferation at >100 nM. (D) HLF-1 fibroblasts were stimulated with TGFβ (1 ng/mL) for 3 days and level of secreted collagen in culture medium was determined by Sirius Red staining. […] Data are analysis by t-test; *p<0.05, **p<0.01.
Confluent HLF1 cells were seeded in DMEM medium containing 10% FBS and then 0.4% serum starvation overnight before stimulation of collagen secretion. TGFb1 (0.1 ng/ml) were added into cells with or without PI3K inhibitors. At 2 days post co-incubation, culture medium was collected for determination of total secreted collagen level. Total collagen level was determined by Sirius Red Total Collagen Detection Kit (Chondrex, Inc). Basically, concentrated sample incubated with […] of Sirius Red Solution with for 20 minutes at room temperature. […] Add […] of Extraction Buffer to the Sirius Red stained pellet and read the OD at 510-550 nm.

IPF fibroblasts = test: TGFβ-induced Collagen I in IPF patient fibroblasts (molecular crowding assay, high content imaging); assay type: cell-based, human; conditions: for TGFβ-induced collagen production/secretion: IPF patient fibroblasts, TGFβ 1 ng/mL, 48 h
Protocol: PI3KI1 and PI3KI1-FAPL suppressed TGFβ-induced collagen production in IPF fibroblasts. (B) Confluent IPF fibroblasts were stimulated for 48 h with TGFβ (1 ng/mL) with increasing concentrations of OMIPALISIB or PI3KI1 or PI3KI1-FAPL and Collagen I expression was assayed by molecular crowding assay with high content image analysis. Data are expressed as relative fluorescent intensity over TGFβ treated IPF fibroblasts (C) and cell counts obtained from DAPI counterstaining (D).

[2] = test system: bleomycin-induced lung fibrosis; test: Therapy in bleomycin-induced lung fibrosis model (survival, hydroxyproline); assay type: in vivo, mouse; conditions: for survival: bleomycin-induced mice versus untreated/PBS control; for hydroxyproline/collagen in lung: bleomycin-induced mice, day 21, versus untreated/PBS control
From the text: Therapy with FAP-a targeted Pi3K inhibitor in bleomycin treated mice. (A) Schematic representation of the experimental protocol for induction, treatment and examination of pulmonary fibrosis in a mouse model. (B) Survival probability of the FAPL_PI3KI1 treated mice over the saline control. (C) Hydroxyproline content (ug/lung) of control (saline), bleomycin treated with and without FAPL_PI3KI1 treatment at day 21. (D) Body weight change
8 to 10-week old C57BL/6-NCrl (Strain Code: 027) male mice (Charles River) were anesthetized (mixture of xylazine/ketamine), followed by a single intratracheal injection of freshly prepared 0.75 mg/Kg of bleomycin sulfate (Cayman Chemicals, Cat N13877) in 50 μL of sterile phosphate-buffered saline (PBS). Control mice were injected with 50 μL of sterile PBS. Body weights were monitored throughout the study. To access the FAP expression and fibrosis in the longitudinal study the lungs were harvested at Days 7, 14 and 21 post-bleomycin instillation. For the therapy with FAP-PI3K inhibitor, same procedure was carried out to administer bleomycin and the lungs were harvested at Day 21 to access the therapeutic efficacy (Day 0 was accounted as the day of bleomycin administration).
Total lung collagen was determined by analysis of hydroxyproline as previously described.^30 The right lung was consistently dedicated for this assay to allow comparison. Briefly, harvested right lung was homogenized in PBS (PH 7.4), digested with 12N HCl at 120° C. for 3 hr. Citrate/acetate buffer (PH 6.0) and Chloramine-T solution were added at room temperature for 20 minutes and the samples were incubated with Ehrlich's solution for 15 min at 65° C. Samples were cooled to room temperature and read at 550 nm. Hydroxyproline standards (Sigma, MO) at concentrations between 0 to 100 μg/ml were used to construct a standard curve.

PI-3 Kinase signaling = conditions: IPF-derived lung fibroblasts; cited from earlier work
AKT phosphorylation = test: Western blot of TGFβ-stimulated HLF-1 fibroblasts: Akt phosphorylation; assay type: cell-based, human
Protocol: as §1
(§2) Serum starved confluent HLF1 cells were co-incubated in medium containing 1 ng/ml TGFb1 with or without designate concentrations of PI3K inhibitors for 24 hours. Cells were harvested and lysed for Western blot analysis. Following sodium dodecyl sulphate polyacrylamide gel electrophoresis and blocking, membranes were incubated with antibodies to detect pSMAD2^Ser465/467 (#3101, Cell Signalling Technology), or pAkt^Ser473 (#4060, Cell signalling Technology), and signals visualized with ECL Western Blotting Detection Reagents (GE Healthcare). […]

[3] = test system: Collagen 1 and αSMA expression; test: Western blot of TGFβ-stimulated HLF-1 fibroblasts: Collagen 1 and αSMA expression; assay type: cell-based, human; conditions: 100 nM, HLF-1, TGFβ 1 ng/mL
Protocol: as §1, §2

HLF-1 fibroblasts [4] = test: MTT assay and Caspase 3 and 7 activity in HLF-1; assay type: cell-based, human
Protocol: as §1
FIG. 18. Caspase 3 and 7 activity show PI3KI1 inhibited HLF-1 proliferation at >100 nM.

HLF-1 fibroblasts [5] = test: Collagen gel contraction assay; assay type: cell-based, human; conditions: 100 nM for 12 hours
Protocol: as §1

For `C[C@H](NC(=O)c1ccnc(CNC(=O)CCC(=O)NC(CSC2CC(=O)N(c3ccc(C4c5ccc(O)cc5OC5=CC(=O)C=CC54)c(C(=O)O)c3)C2=O)C(=O)O)c1)C(=O)N1CC(F)(F)C[C@H]1C#N` (some centres unmarked) [FAPL-FITC], the “cell population recognized among cells binding a monoclonal antibody against mouse FAP” value (mouse FAP) was ~98%, the “binding to hFAP-HLF1 cell line” value (human FAP; confocal microscopy and flow cytometry) was “binds well with good competition” and the internalization (human FAP; HLF1-hFAP cells) was “internalized upon receptor engagement”.

With `COc1ncc(-c2ccc3nccc(-c4ccc(COC(=O)OCCSSCC(NC(=O)CCC(=O)NCc5cc(C(=O)N[C@@H](C)C(=O)N6CC(F)(F)C[C@H]6C#N)ccn5)C(=O)O)nc4)c3c2)cc1NS(=O)(=O)c1ccc(F)cc1F` (some centres unmarked) [FAPL-PI3KI1] the IC50 (HLF-1 fibroblasts [1]; HLF1-hFAP cell line, read-out: IC50 of collagen secretion/synthesis) was < 10 nM, the IC50 (IPF fibroblasts; IPF patient cell lines, read-out: IC50 of collagen secretion/synthesis) was < 10 nM and the TGFβ-induced collagen production/secretion (IPF fibroblasts; listed as FAP_PI3KI1) was “suppresses TGFβ induced collagen secretion at low drug concentration, better than free PI3KI1 and free GSK drug OMIPALISIB”. The TGFβ-induced collagen production/secretion (IPF fibroblasts; listed as PI3KI1-FAPL) was “suppressed”, the survival [2] was “increased survival” and the survival ([2]; listed as FAPL_PI3KI-SUH) was “increased survival rate”. For the same compound, the hydroxyproline/collagen in lung [2] was “decreased hydroxyproline/collagen production” and the hydroxyproline/collagen in lung ([2]; listed as FAPL_PI3KI-SUH) was “reduction of hydroxyproline”.

In the case of `COc1ncc(-c2ccc3nccc(-c4ccnnc4)c3c2)cc1NS(=O)(=O)c1ccc(F)cc1F` [OMIPALISIB], the “PI-3 Kinase signaling and functional responses” value (PI-3 Kinase signaling) is listed as “inhibited PI-3 Kinase signaling and functional responses”.

In the case of `COc1ncc(-c2ccc3nccc(-c4ccc(CO)nc4)c3c2)cc1NS(=O)(=O)c1ccc(F)cc1F` [PI3KI1], the “Akt phosphorylation inhibition compared with OMIPALISIB” value (AKT phosphorylation; HLF-1) is reported as “better than its GSK counterpart OMIPALISIB”, the IC50 (AKT phosphorylation; Homo sapiens, HLF1, HLF-1, TGF-β 1 ng/ml for 24 hr, read-out: IC50 of TGF-β induced AKT phosphorylation) is reported as 1.4 nM and the “Collagen 1 and αSMA expression” value [3] is reported as “suppressed”. For the same compound, the toxicity (HLF-1 fibroblasts [4]; HLF-1) was “does not have toxicity”, the “concentration at which HLF-1 proliferation is inhibited” value (HLF-1 fibroblasts [4]; MTT assay and Caspase 3 and 7 activity) was > 100 nM and the collagen secretion (HLF-1 fibroblasts [1]; HLF-1 cell line, TGFβ stimulated) was “suppresses collagen secretion”. For the same compound, the “fibroblast reorganization and contraction (collagen gel contraction)” value (HLF-1 fibroblasts [5]) was “disrupted fibroblasts reorganization and contraction” and the TGFβ-induced collagen production/secretion (IPF fibroblasts) was “suppressed”.
